Experimental data as given in patent US20040208864A1, “Methods of improving health-related quality of life in individuals with systemic lupus erythematosus” (priority 2002, published 2004).
“Also recorded” adds a separate entry of the source.

How the values were obtained:
[1] = test system: anti-dsDNA antibodies; assay: Anti-dsDNA antibody levels (Farr assay), Phase III study; type: in vivo, human; settings: for Frequency of patients with sustained reductions in anti-dsDNA antibodies compared with placebo: Phase III (90-09), sustained = at least 10% below baseline for at least 2/3 of values
Method: (§1) Two studies (Phase II/III or 90-05, and Phase III or 90-09) were conducted as described in Examples 1-2 and 12. […] Patients completed the SF-36® assessment at entry, followed by three additional time points in the trial depending on how long they participated. […] The Phase II/III trial enrolled 198 lupus patients with high-affinity antibodies who were treated for up to 18 months.
(§2) Patients selection, duration of treatment, assay type were in these studies are further detailed in Table 5. All laboratory values were determined at a central laboratory. Baseline anti-dsDNA antibody levels were calculated as the mean of the last 2 determinations prior to initial administration of the study drug. Baseline values for all other laboratory measures were determined immediately before administration of the study drug. The upper limit of normal for the anti-dsDNA antibody assay at the central laboratory was 5 IU/ml.
(§3) (Sustained reduction of 10% was based on the percent coefficient of variation of the Farr assay as reported in the assay labeling. At least ⅔ of observations were required to meet this criterion to assure the majority of values were represented for a patient.) All anti-dsDNA antibody values collected were used to determine if a patient met the criterion for sustained reduction. Anti-dsDNA antibody values subsequent to HDCC were considered treatment failures and these values were imputed to have a value equivalent to baseline.

[2] = test system: anti-dsDNA antibodies; assay: Anti-dsDNA antibody levels (Farr assay), Phase II/III study; type: in vivo, human; settings: for Frequency of patients with sustained reductions in anti-dsDNA antibodies compared with placebo: Phase II/III (90-05), sustained = at least 10% below baseline for at least 2/3 of values
Method: as §1, §2, §3

[3] = test system: SLE patients; assay: Documented renal flares, Phase III study; type: in vivo, human
Method: The primary endpoint was time to renal flare. A renal flare was defined as a significant, reproducible increase in serum creatinine, urine protein or blood in the urine as described in Example 2. The secondary endpoint was time to treatment with HDCC. HDCC was defined as any dose of cyclophosphamide or an increase in prednisone of 15 mg/day or higher resulting in a final dose greater than 20 mg/day.
The incidences of renal flares in patients of both sustained reduction group and the other group were documented and the results are shown in Table 7 for Phase III and Table 8 for Phase II/III.

[4] = test system: anti-dsDNA; settings: murine models of SLE; cited from earlier work
[5] = test system: SLE patients; assay: SF-36 health-related quality of life, Phase III (90-09) trial of LJP 394 vs placebo; type: in vivo, human; settings: for Longitudinal differences in HRQOL (SF-36 domain scores) drug-treated vs placebo-treated: various time points, all patients
Method: Patients were treated with weekly doses of 100 mg of LJP 394 or with placebo. Patients were also permitted to receive certain other treatments including some but not all immunosuppressive drugs using a definition similar to Example 2. This randomized, double-blind, placebo-controlled study was conducted at more than 70 major medical centers in North America and Europe. Patients could remain in the study for up to 92 weeks.
The prospectively defined analysis groups were the intent-to-treat population and patients with impaired renal function. The intent-to-treat population was defined as patients with high-affinity antibodies to LJP 394. The patients with high-affinity antibodies to LJP 394 were those with a Kd′<0.8 mg/ml. Patients with impaired renal function were defined as having a serum creatinine level of 1.5 mg/dL to 3.5 mg/dL at baseline. In general, patients with impaired renal function are at greater risk of progressing to renal flare, kidney failure, and dialysis.
Complement changes were evaluated by determining the mean change from baseline in the complement protein C3 that indicates overall complement consumption due to active inflammation. Antibody changes were evaluated by determining the mean percent change of antibodies to dsDNA from baseline. Patients' assessments of disease activity and health-related quality of life were measured on a regular basis as well as at the time of, and 30 days following, a documented renal flare.
as §1
As described above in the detailed description of the invention, HRQOL is an assessment of a patient's sense of physical and mental well-being or how they feel. In the Phase II/III and Phase III studies, HRQOL was measured by a standard scoring instrument called the Medical Outcomes Study 36-Item Short Form (SF-36′). The SF-36® Health Survey is a standardized tool used in clinical research to measure a patient's assessment of quality of life outcomes related to disease and disease treatment. The Survey asked 36 questions related to how well a patient can perform day-to-day activities and how they feel emotionally. The answers were then reported as scores in eight domains. These domains are physical functioning, role-physical, bodily pain, general health, vitality, social functioning, role-emotional and mental health. SF-36@ was measured in both Phase III and II/III.

Substance: abetimus sodium (sense GTGTGTGTGTGTGTGTGTGT; antisense CACACACACACACACACACA; sense: DNA, backbone not given here; antisense: DNA, backbone and methylation of C not given here; four deoxynucleotide duplexes bound to triethylene glycol valency platform) [LJP 394, tetravalent conjugate: four (CA)10.(TG)10 double-stranded 20-mer oligonucleotides on a triethylene glycol based valency platform]
- # Patients with sustained reduction ([1]; Phase III): 80
- # Patients, Other (no sustained reduction) ([1]; Phase III): 65
- Frequency of patients with sustained reductions in anti-dsDNA antibodies compared with placebo [1]: higher frequency; also recorded: Four times as many; also recorded: Twice as many; also recorded: more frequent
- Frequency of patients with sustained reductions in anti-dsDNA antibodies compared with placebo ([1]; listed as LJP394): Twice as many
- Change in anti-dsDNA antibodies from baseline compared with placebo ([1]; Phase III, p<0.0001): statistically significant decrease
- # Patients with sustained reduction ([2]; Phase II/III): 54
- # Patients, Other (no sustained reduction) ([2]; Phase II/III): 38
- Frequency of patients with sustained reductions in anti-dsDNA antibodies compared with placebo [2]: higher frequency; also recorded: more frequent
- Frequency of patients with sustained reductions in anti-dsDNA antibodies compared with placebo ([2]; listed as LJP394): Four times as many
- Change in anti-dsDNA antibodies from baseline compared with placebo ([2]; Phase II/III, p<0.0001): statistically significant decrease
- # Renal flares in Other patients [3]: 14
- # Renal flares in patients with sustained reduction [3]: 3
- Effect on anti-dsDNA titers [4]: selectively reduces anti-dsDNA titers
- Mean SF-36 domain scores after renal flare compared with placebo ([5]; after renal flare): remained better than placebo patients; also recorded: remained better than placebo patients'
- Mean SF-36 domain scores before renal flare compared with placebo ([5]; before renal flare): improved HRQOL scores before the renal flare compared with placebo; also recorded: higher for LJP394 treated patients in all domains
- SF-36 domain score changes pre/post renal flare compared with placebo ([5]; pre vs post renal flare): seven of eight domains; also recorded: better HRQOL compared with Placebo patients in all domains except physical functioning
- Longitudinal differences in HRQOL (SF-36 domain scores) drug-treated vs placebo-treated [5]: not significantly different
- Longitudinal differences in HRQOL (SF-36 domain scores) drug-treated vs placebo-treated ([5]; listed as Riquent™): No substantive differences
